Reference: the NIST ThermoML archive (doi:10.1021/je300736k)
Numbers after ± are expanded uncertainties.

Conditions: Liquid, Closed cell (Static) method

vapor or sublimation pressure (278.15 K) [kPa] | vapor or sublimation pressure (283.15 K) [kPa] | vapor or sublimation pressure (288.15 K) [kPa] | vapor or sublimation pressure (293.15 K) [kPa] | vapor or sublimation pressure (298.15 K) [kPa] | vapor or sublimation pressure (303.15 K) [kPa] | vapor or sublimation pressure (308.15 K) [kPa] | vapor or sublimation pressure (313.15 K) [kPa] | vapor or sublimation pressure (318.15 K) [kPa] | vapor or sublimation pressure (323.15 K) [kPa] | Compound
0.071 ± 0.026 | 0.093 ± 0.026 | 0.13 ± 0.026 | 0.178 ± 0.026 | 0.253 ± 0.026 | 0.346 ± 0.026 | 0.477 ± 0.026 | 0.627 ± 0.027 | 0.828 ± 0.027 | 1.101 ± 0.027 | CC12CCC(CC1)C(C)(C)O2 [1,3,3-trimethyl-2-oxabicyclo[2.2.2]octane]
0.704 ± 0.027 | 1.012 ± 0.027 | 1.449 ± 0.028 | 2.038 ± 0.028 | 2.838 ± 0.029 | 3.866 ± 0.029 | 5.229 ± 0.03 | 7.006 ± 0.032 | 9.295 ± 0.035 | 12.18 ± 0.037 | CCCO [propan-1-ol]
